According to paper PMC6690930, “Characterization and its implication of a novel taste receptor detecting nutrients in the honey bee, Apis mellifera” (Scientific Reports, 2019):

Legend:
[1] = system: AmGr1; parameters: method as in earlier work; details: cited from earlier work
[2] = system: sensilla chaetica on the galea; test: Tip recording from galeal sensilla chaetica of honey bee; type: in vivo, Apis mellifera; details: for Responses during 1 sec of stimulation: sensilla chaetica on the galea; for Threshold concentration necessary for tip recording: honey bee mouthparts in vivo; for Response of sensilla chaetica on the galea (in words): tip recording
From the text: Tip recording® experiments were amplified and recorded from the left galea of the proboscis in honey bee mouthparts with IDAC4 with Autospikes software (Syntech, Hilversum, The Netherlands). Bees were immobilized by cooling on ice, restrained in a pipette tip, holding head and appendages in place for electrophysiological measurements. Recordings from gustatory sensilla in galea were made from so-called sensilla chaetica[81] at the tip of galea devoid of olfactory sensilla. These sensilla can be easily identified by their external morphology. A grounded reference electrode filled with 1 mM KCl was inserted into the compound eye. L-glutamate and L-aspartate were selected for tip recording testing and are common amino acids in plant pollen. For stimulation, 1 mM KCl with […] concentrations of 100 mM and 1 mM KCl alone were used. Stimuli were applied for approximately 5 s with an inter-stimulus interval of 3 min. […] These sensilla were excluded from the data analysis. The responses of galeal sensilla to all tested solutions were quantified by counting the number of spikes after stimulus onset.

[3] = molecular target: T1, AmGr10 (Apis mellifera, UniProt A0A7M6W8K8); test: Calcium imaging of HEK 293 cells expressing AmGr10; type: cell-based; details: for Real time calcium imaging response: 50 μm amino acid alone, Videos S1, S2; for Real time calcium imaging response with IMP: 50 μm amino acid with 2 μm of IMP, Videos S3, S4
Method: (§1) The expression vector was synthesized by inserting the cDNA of AmGr10 (Apis mellifera Gustatory receptor 10) into the multiple cloning site of the pcDNA3.1 vector using the restriction enzymes EcoRI and NotI (Koscamco, Anyang, Korea). Template pDNA for pcDNA3.1-AmGr10 and primers were then mixed with kit solutions. The total PCR volume and conditions were followed as described previously. 2.5 µg of the vector with AmGr10 was transfected into the HEK 293 cells using Lipofectamine 2000 (Invitrogen, CA, USA). The transfection method was according to the manufacturer’s manual. In brief, the Opti-MEM (Invitrogen, CA, USA) was mixed with Lipofectamine at the rate of 6 μL in 125 μL Opti-MEM. It was incubated for 5 min at room temperature. The plasmid DNA (2.5 μg) also was blended with 125 μL Opti-MEM media. These were combined and incubated for 20 min at room temperature. The solution was applied on the HEK cells. After 24 h, the transfected cells were selected using 200 µg/ml zeocin.
Transfected cell lines were subsequently cultured on dishes suitable for confocal microscopy (SPL, Pocheon, Korea). Before each experiment, the culture medium was removed and washed once in Hansk’s balanced salt solution (assay buffer). Transfected cells were loaded with calcium dye Fluo-4 AM (Molecular probes, USA), 2 μM in assay buffer to the dish, after which the cells were incubated in the dark for 90 min at room temperature. After incubation, 1X HBSS buffer was added to the confocal dish, which was then directly placed in the LSM700 inverted confocal microscope for observation (Zeiss, Oberkochen, Germany). Images were captured with a maximum of 100 frames per two-second interval. Test chemicals were dissolved in HBSS at various concentrations. Calcium influx into the transfected cells upon ligand binding was monitored and analyzed with ZEN software (Zeiss, Oberkochen, Germany). For data analysis, response refers to the number of cells responding in a field of about 300 transfected cells. Cells were counted as responders if the F ratio increased above 0.27 after addition of tastants.

[4] = system: hT1R1/hT1R3; details: cited from earlier work
[5] = molecular target: T1, AmGr10; test: Intracellular calcium assay (Fluo-4) in HEK 293 cells expressing AmGr10; type: cell-based; details: for Response of HEK 293 cells expressing AmGr10 (in words): 100 mM of amino acid
Method: as §1
For calcium signaling assays, HEK 293 cells expressing AmGr10 were cultured for more than 3 days, and the Fluo-4 AM dye mix solution (Molecular probes) was loaded into the cell in 96-well microplate. […] To normalize the response, the changes in the fluorescence ratio were divided by the maximal fluorescence changes induced by each compound.

[6] = system: human; parameters: method as in PMID 24214976; details: at high concentrations; cited from earlier work
[7] = molecular target: T1, AmGr10; test: Two-electrode voltage-clamp recording of Xenopus oocytes expressing AmGr10; type: cell-based; details: for Response of oocytes injected with AmGr10 cRNA (in words): holding potential -70 mV; for Threshold concentration on Xenopus oocytes expressed AmGr10: in vitro
Method: Full-length coding sequences of the AmGr10 cDNA were first cloned into pGEM-T easy vector (Promega, Madison, USA) and then subcloned into the pSDTF vector. In vitro transcription of cRNA was performed by using the mMESSAGE mMACHINE SP6 Kit (Ambion, Austin, TX, USA) according to the manufacturer’s protocol. Plasmids were linearized with EcoR1, and capped cRNA was transcribed using SP6 RNA polymerase. The cRNA was purified, resuspended in nuclease-free water at a concentration of 1 μg/μl, and stored at −80 °C in aliquots. Mature oocytes were freed from the follicle cells by treatment with collagenase A for 1 h at room temperature and incubated for 24 hours in modified Barth’s solution[16]. […] The oocytes were then incubated at 17 °C for 3~5 days in Barth’s solution. The two-electrode voltage-clamp technique was employed to observe tastant-induced currents at a holding potential of −70 mV.

[8] = system: non-transfected HEK 293 cells; test: Calcium imaging of non-transfected HEK 293 cells (control); type: cell-based; details: Fig. S6
Method: Test chemicals were dissolved in HBSS at various concentrations.

[9] = system: AmGr3; parameters: method as in PMID 28403157, PMID 29194737; details: cited from earlier work

T1 sequence (A0A7M6W8K8 entry or part of it): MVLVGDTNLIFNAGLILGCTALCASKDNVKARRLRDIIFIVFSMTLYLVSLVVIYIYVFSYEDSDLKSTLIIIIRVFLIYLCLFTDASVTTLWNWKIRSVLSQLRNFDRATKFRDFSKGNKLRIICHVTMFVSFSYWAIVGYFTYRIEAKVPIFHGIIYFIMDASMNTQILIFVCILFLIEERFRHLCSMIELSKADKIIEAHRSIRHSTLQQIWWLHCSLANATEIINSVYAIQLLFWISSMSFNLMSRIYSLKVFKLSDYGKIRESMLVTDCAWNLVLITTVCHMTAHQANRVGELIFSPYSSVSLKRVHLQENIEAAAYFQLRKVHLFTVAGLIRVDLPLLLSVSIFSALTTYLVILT

In the case of `OC[C@H]1O[C@H](O[C@H]2[C@H](O)[C@@H](O)C(O)O[C@@H]2CO)[C@H](O)[C@@H](O)[C@@H]1O` (mixture of isomers) [maltose], the “Response of AmGr1” value [1] is listed as “responded”.
With `Nc1nc2c(ncn2[C@@H]2O[C@H](COP(=O)(O)O)[C@@H](O)[C@H]2O)c(=O)[nH]1` [GMP, Guanosine 5′-monophosphate] the “Effect of GMP on responses to non-amino acid stimulus sucrose” value ([2]; 2 mM GMP) was “no significant effect” and the “Effect of GMP on nerve-firing rates to amino acids” value ([2]; 2 mM GMP, 50 mM amino acids) was “significantly enhanced”.
For `NC(CCP(=O)(O)O)C(=O)O` [L-AP4], the “AmGr10 response in presence of purine nucleotides” value ([3]; amino acids 50 mM, IMP 2 mM) was “greatly enhanced”.
For `C[C@H](N)C(=O)O` [L-Ala], the “Response of hT1R1/hT1R3” value [4] is given as “slight but significant responses”.
In the case of `N=C(N)NCCC[C@H](N)C(=O)O` [L-arginine, L-Arginine], the “Response of HEK 293 cells expressing AmGr10 (in words)” value [5] is given as “significant responses”, the “Umami taste in human sensory tests” value [6] is given as “weak umami taste” and the “Response of hT1R1/hT1R3” value [4] is given as “slight but significant responses”. For the same compound, the “Response of oocytes injected with AmGr10 cRNA (in words)” value (“Response of oocytes injected” below) [7] was “responsive”.
In the case of `NC(=O)C[C@H](N)C(=O)O` [L-asparagine, L-Asparagine], the “Response of HEK 293 cells expressing AmGr10 (in words)” value [5] is listed as “significant responses”, the “Umami taste in human sensory tests” value [6] is listed as “weak umami taste” and the “Response of hT1R1/hT1R3” value [4] is listed as “slight but significant responses”. For the same compound, the “Response of oocytes injected” value [7] was “responsive”.
For `N[C@@H](CC(=O)O)C(=O)O` [L-aspartate, L-Aspartic acid], the “Response of HEK 293 cells expressing AmGr10 (in words)” value [5] was “highest responses”, the “Response of oocytes injected” value [7] was “responsive” and the “Threshold concentration on Xenopus oocytes expressed AmGr10” value [7] was ~ 10 mM. The “Responses during 1 sec of stimulation” value ([2]; 100 mM) was 22 spikes, the “Responses during 1 sec of stimulation” value ([2]; 200 mM) was 51 spikes and the “Responses during 1 sec of stimulation” value ([2]; concentration of 50 mM) was 6 spikes. The “Threshold concentration necessary for tip recording” value [2] was ~ 50 mM, the “Response of sensilla chaetica on the galea (in words)” value (“Response of sensilla chaetica” below) [2] was “responded” and the “Real time calcium imaging response” value [3] was “clearly showed calcium responses”. For the same compound, the “Real time calcium imaging response with IMP” value [3] was “clearly showed enhanced response”.
With `N[C@@H](CCC(=O)O)C(=O)O` [L-glutamate, L-Glutamic acid] the “Response of HEK 293 cells expressing AmGr10 (in words)” value [5] was “highest responses”, the “Response of oocytes injected” value [7] was “responsive” and the “Threshold concentration on Xenopus oocytes expressed AmGr10” value [7] was ~ 10 mM. For the same compound, the “Responses during 1 sec of stimulation” value ([2]; 100 mM) was 27 spikes, the “Responses during 1 sec of stimulation” value ([2]; 200 mM) was 55 spikes and the “Responses during 1 sec of stimulation” value ([2]; concentration of 50 mM) was 15 spikes. The “Threshold concentration necessary for tip recording” value [2] was ~ 50 mM, the “Response of sensilla chaetica” value [2] was “responded” and the “Real time calcium imaging response” value [3] was “clearly showed calcium responses”. For the same compound, the “Real time calcium imaging response with IMP” value [3] was “clearly showed enhanced response”.
For `NC(=O)CC[C@H](N)C(=O)O` [L-glutamine, L-Glutamine], the “Response of HEK 293 cells expressing AmGr10 (in words)” value [5] is given as “significant responses”, the “Umami taste in human sensory tests” value [6] is given as “weak umami taste” and the “Response of hT1R1/hT1R3” value [4] is given as “slight but significant responses”. For the same compound, the “Response of oocytes injected” value [7] was “responsive”.
In the case of `N[C@@H](Cc1c[nH]cn1)C(=O)O` [L-histidine, L-Histidine], the “Response of hT1R1/hT1R3” value [4] is listed as “slight but significant responses”.
With `NCCCC[C@H](N)C(=O)O` [L-lysine, L-Lysine] the “Response of HEK 293 cells expressing AmGr10 (in words)” value [5] was “significant responses” and the “Response of oocytes injected” value [7] was “responsive”.
In the case of `N[C@@H](CO)C(=O)O` [L-serine, L-Serine], the “Response of hT1R1/hT1R3” value [4] is listed as “slight but significant responses”.
For `N[C@@H](CCC(=O)O)C(=O)[O-].[Na+]` [MSG, L-Glutamic acid monosodium salt], the “Response to MSG of AmGr10-transfected HEK 293 cells vs non-transfected” value ([5]; concentration steps, Fig. S5) is listed as “significantly increased” and the “Sensitivity of HEK 293 cells expressing hT1R1/hT1R3” value ([4]; unlike non-transfected HEK 293 cells) is listed as “significantly sensitive”.
For `Cn1c(=O)c2c(ncn2C)n(C)c1=O` [caffeine], the “Response of oocytes injected” value [7] was “not”.
With `CNc1ccc2oc(C[C@@H]3OC4(CC[C@@H]3C)O[C@H](C(C)C(=O)c3ccc[nH]3)[C@H](C)C[C@H]4C)nc2c1C(=O)O` (stereo partly drawn) [calcium ionophore] the “Calcium influx in non-transfected HEK 293 cells” value [8] was “activated”.
For `O=C(CO)[C@@H](O)[C@H](O)[C@H](O)CO` [fructose], the “Response of AmGr3” value [9] is listed as “responds only” and the “Response of AmGr1” value [1] is listed as “not”.
In the case of `OC[C@H]1OC(O)[C@H](O)[C@@H](O)[C@@H]1O` (stereo partly drawn) [glucose], the “Response of AmGr1” value [1] is listed as “responded”.
For `OC[C@H]1O[C@@](CO)(O[C@H]2O[C@H](CO)[C@@H](O)[C@H](O)[C@H]2O)[C@@H](O)[C@@H]1O` [sucrose, Sucrose], the “Response of AmGr1” value [1] is listed as “responded” and the “Response of sensilla chaetica” value [2] is listed as “sensitive”.
In the case of `OC[C@H]1O[C@H](O[C@H]2O[C@H](CO)[C@@H](O)[C@H](O)[C@H]2O)[C@H](O)[C@@H](O)[C@@H]1O` [trehalose], the “Response of AmGr1” value [1] is listed as “responded”.
